ChEMBL document CHEMBL1134693, “Synthesis and comparative molecular field analysis (CoMFA) of symmetric and nonsymmetric cyclic sulfamide HIV-1 protease inhibitors” (J Med Chem, 2001)

Tests used:
[1] = biological target: T1, Human immunodeficiency virus type 1 protease (Human immunodeficiency virus 1, UniProt Q72874); assay: Inhibition of recombinant HIV-1 protease measured by fluorometric assay
[2] = biological target: T1, Human immunodeficiency virus type 1 protease; assay: Inhibition of HIV-1 protease by fluorometric assay

Ki [1] [nM]	Ki [2] [nM]	Structure (SMILES)
3.4	3.39	C/C(=N\O)c1cccc(CN2[C@H](COc3ccccc3)[C@H](O)[C@@H](O)[C@@H](COc3ccccc3)N(Cc3cccc(/C(C)=N/O)c3)S2(=O)=O)c1
920	912	O=S1(=O)N(Cc2ccc(-c3cccs3)cc2)[C@@H](COc2ccccc2)[C@@H](O)[C@H](O)[C@H](COc2ccccc2)N1Cc1ccc(-c2cccs2)cc1
1800	1780	O=C(CN1[C@@H](COc2ccccc2)[C@@H](O)[C@H](O)[C@H](COc2ccccc2)N(Cc2ccc(-c3cccs3)cc2)S1(=O)=O)Nc1nccs1
140	141	O=C(CN1[C@@H](COc2ccccc2)[C@@H](O)[C@H](O)[C@H](COc2ccccc2)N(Cc2cccc(-c3cccs3)c2)S1(=O)=O)Nc1nccs1
510	513	O=C(CN1[C@@H](COc2ccccc2)[C@@H](O)[C@H](O)[C@H](COc2ccccc2)N(Cc2cccc(I)c2)S1(=O)=O)Nc1nccs1
1400	1410	CNC(=O)CN1[C@@H](COc2ccccc2)[C@@H](O)[C@H](O)[C@H](COc2ccccc2)N(Cc2ccccc2)S1(=O)=O
86	85.1	O=S1(=O)N(Cc2ccccc2)[C@@H](COc2ccccc2)[C@@H](O)[C@H](O)[C@H](COc2ccccc2)N1Cc1cccc(-c2cccs2)c1
63	63.1	O=S1(=O)N(Cc2ccccc2)[C@@H](COc2ccccc2)[C@@H](O)[C@H](O)[C@H](COc2ccccc2)N1Cc1ccc(-c2cccs2)cc1
350	347	O=C(CN1[C@@H](COc2ccccc2)[C@@H](O)[C@H](O)[C@H](COc2ccccc2)N(Cc2ccccc2)S1(=O)=O)Nc1nccs1
510	513	CN1[C@@H](COc2ccccc2)[C@@H](O)[C@H](O)[C@H](COc2ccccc2)N(Cc2ccccc2)S1(=O)=O
39	38.9	CNC(=O)c1cccc(CN2[C@@H](COc3ccccc3)[C@@H](O)[C@H](O)[C@H](COc3ccccc3)N(Cc3cccc(C(=O)NC)c3)S2(=O)=O)c1
6000	6030	O=S1(=O)N(Cc2ccc(-c3cccs3)cc2)[C@@H](COc2ccccc2)[C@@H](O)[C@H](O)[C@H](COc2ccccc2)N1Cc1cccc(-c2cccs2)c1
2200	2190	O=S1(=O)N(Cc2cccc(-c3cccs3)c2)[C@@H](COc2ccccc2)[C@@H](O)[C@H](O)[C@H](COc2ccccc2)N1Cc1cccc(-c2cccs2)c1
710	708	CN1[C@@H](COc2ccccc2)[C@@H](O)[C@H](O)[C@H](COc2ccccc2)N(C)S1(=O)=O
25000	25100	CNC(=O)CN1[C@@H](COc2ccccc2)[C@@H](O)[C@H](O)[C@H](COc2ccccc2)N(CC(=O)NC)S1(=O)=O
93	93.3	O=S1(=O)N(Cc2cccc(I)c2)[C@@H](COc2ccccc2)[C@@H](O)[C@H](O)[C@H](COc2ccccc2)N1Cc1cccc(I)c1

Structure (SMILES)	Ki [1] [nM]	Ki [2] [nM]
O=S1(=O)N(Cc2ccccc2)[C@H](COc2ccccc2)[C@H](O)[C@@H](O)[C@@H](COc2ccccc2)N1Cc1ccccc1	23	22.9
O=C1N(Cc2ccccc2)[C@H](COc2ccccc2)[C@H](O)[C@@H](O)[C@@H](COc2ccccc2)N1Cc1ccccc1	11	
O=S1(=O)N(Cc2cccc(CCO)c2)[C@@H](COc2ccccc2)[C@@H](O)[C@H](O)[C@H](COc2ccccc2)N1Cc1cccc(CCO)c1	43	42.7
CC(=O)c1cccc(CN2[C@@H](COc3ccccc3)[C@@H](O)[C@H](O)[C@H](COc3ccccc3)N(Cc3cccc(C(C)=O)c3)S2(=O)=O)c1	59	58.9
O=S1(=O)N(Cc2ccc(CO)cc2)[C@@H](COc2ccccc2)[C@@H](O)[C@H](O)[C@H](COc2ccccc2)N1Cc1ccc(CO)cc1	3.1	3.09
COC(Cc1cccc(CN2[C@@H](COc3ccccc3)[C@@H](O)[C@H](O)[C@H](COc3ccccc3)N(Cc3cccc(CC(OC)OC)c3)S2(=O)=O)c1)OC	540	537
COC(=O)c1ccc(CN2[C@@H](COc3ccccc3)[C@@H](O)[C@H](O)[C@H](COc3ccccc3)N(Cc3ccc(C(=O)OC)cc3)S2(=O)=O)cc1	84	83.2
